What was measured:
5-HT3 receptors = settings: isolated rabbit vagus nerve; cited from earlier work
5-HT3 receptor = settings: cantharidine blister base; cited from earlier work
behavioral activity = test: Studies A to D taken together (ethological and endocrinological tests); format: in vivo, mouse
Method: Male intruder mice show only low levels of social activity and high levels of defensive activity when introduced into the home cage of an individually housed adult male. Benzodiazepines and related drugs increase approaxh activities in this situation (Dixon 1982, Triangle 21: 95-105 (1982) Krsiak. M. Br. J. Pharmacol. 55: 141-150 (1975)). Compounds of formula I, in oral doses of 0.1 to 1 mg/kg increase approach oriented social activity.
Stretched attend postures in mice signify an ambivalent form of conflict which is inhibited by putative anxiolytics (Kaeserman HP Psychopharmacology (1986) 89: 31-37). Compounds of formula I, when given 2 hours before, reduce the duration of stretched attend postures to mice placed on a novel elevated platform.
Compounds of formula I reduce such stress-induced corticosterone at 1 mg/kg p.o. whilst doses from 0.1 to 0.3 increase plasma levels of this hormone.

migraine attack = settings: slow i.v. injection of 10 mg; cited from earlier work

SMILES	blockade of the action of serotonin on the C fibre action potential (5-HT3 receptors)	relative activity among the compounds of formula I (behavioral activity)	also measured
CSc1ccc2c(c1)C(N1CCN(C)CC1)Cc1ccccc1S2 (stereo not drawn) [metitepine]	not blocked		
CC[C@@H](CO)NC(=O)[C@@H]1C=C2c3cccc4c3c(cn4C)C[C@H]2N(C)C1 [methysergide]	not blocked		
CCN(CC)C(=O)[C@@H]1C=C2c3cccc4[nH]c(Br)c(c34)C[C@H]2N(C)C1 [its bromo derivative]			inhibition of the algesic action of serotonin (5-HT3 receptor): not inhibited
CCN(CC)C(=O)[C@@H]1C=C2c3cccc4[nH]c(Br)c(c34)C[C@H]2N(C)C1 [BOL -148]	not blocked		
CN1C2CCC1CC(=CC(=O)c1c[nH]c3ccccc13)C2 (single isomer, unassigned; (+)) [compound F, (+)-Indol-3-yl-carbonyl-methylenyl-3-(8-methyl-8-azabicyclo[3.2.1]octane)]		most active	
CCN(CC)CCNC(=O)c1cc(Cl)c(N)cc1OC [Metoclopramide]			effect on a migraine attack (migraine attack): immediate beneficial effect
CN1C2CCC1CC(=CC(=O)c1c[nH]c3ccccc13)C2 [compound E, Indol-3-yl-carbonyl-methylenyl-3-(8-methyl-8-azabicyclo[3.2.1]octane)]		most active	
CN1C2CCC1CC(=CC(=O)c1c[nH]c3ccccc13)C2 (single isomer, unassigned; (-)) [compound G, (-)-Indol-3-yl-carbonyl-methylenyl-3-(8-methyl-8-azabicyclo[3.2.1]octane)]		most active	
CCN(CC)C(=O)[C@@H]1C=C2c3cccc4[nH]cc(c34)C[C@H]2N(C)C1 [lysergic acid diethylamide]			inhibition of the algesic action of serotonin (5-HT3 receptor): not inhibited

Source: patent US4826838A, “Analgesic carbocyclic and heterocyclic carbonylmethylene-and carbonylmethypipidines and-pyrrolidines” (Sandoz Ltd., priority 1985, dated 1989)
